Test results published in article PMC4505723 (Journal of the American Chemical Society, 2015).

Test system: L. lactis HP cells
Assay: liquid media growth assays with L. lactis HP cells
Format: cell-based
Details: liquid media growth assay (Figure S4)

## lacticin 481 [wt lacticin 481]
  IC50: 100 ± 25 nM

## nukacin ISK-1
  IC50: 400 ± 80 nM
